This note sets out measurements from patent US9926267B2, “Covalent inhibitors of K-Ras G12C” (Araxes Pharma LLC, priority 2013, dated 2018).

In this test the target is T1, KRAS G12C 1-169, his-tagged protein, GDP-loaded (Homo sapiens, UniProt P01116, G12C).
T1 construct: KRAS G12C 1-169, his-tagged protein, GDP-loaded
In words: Biochemical assay: covalent binding to KRAS G12C, measured by mass spectrometry. Here is the method: Test compounds were prepared as 10 mM stock solutions in DMSO (Fisher cat#BP-231-100). KRAS G12C 1-169, his-tagged protein, GDP-loaded was diluted to 2 μm in buffer (20 mM Hepes, 150 mM NaCl, 1 mM MgCl2). Compounds were tested for activity as follows:
Compounds were diluted to 50× final test concentration in DMSO in 96-well storage plates. Compound stock solutions were vortexed before use and observed carefully for any sign of precipitation. Dilutions were as follow: • For 100 μM final compound concentration, compounds were diluted to 5000 μM (5 μl 10 mM compound stock+5 μl DMSO and mixed well by pipetting. • For 30 μM final compound concentration, compounds were diluted to 1500 μM (3 μl 10 mM compound stock+17 μl DMSO) and mixed well by pipetting. • For […] final compound concentration, compounds were diluted to 500 μM (2 μl 10 mM compound stock+38 μl DMSO) and mixed well by pipetting. 49 μl of the stock protein solution was added to each well of a 96-well PCR plate (Fisher cat#1423027). 1 μl of the diluted 50× compounds were added to appropriate wells in the PCR plate using 12-channel pipettor. Reactions were mixed carefully and thoroughly by pipetting up/down with a 200 μl multi-channel pipettor. The plate was sealed well with aluminum plate seal, and stored in a drawer at room temperature for 2 hrs or 24 hrs. 5 μl of 2% formic acid (Fisher cat#A117) in DI H2O was then added to each well followed by mixing with a pipette. The plate was then resealed with aluminum seal and stored on dry ice until analyzed as described below.
The above described assays were analyzed by mass spectrometry according to the following procedure:
The MS instrument is set to positive polarity, 2 GHz resolution, and low mass (1700) mode and allowed to equilibrate for 30 minutes. The instrument is then calibrated, switched to acquisition mode and the appropriate method loaded.
After another 30 minute equilibration time, a blank batch (i.e., buffer) is run to ensure equipment is operating properly. The samples are thawed at 37° C. for 10 minutes, briefly centrifuged, and transfer to the bench top. Wells A1 and H12 are spiked with 1 uL 500 uM internal standard peptide, and the plates centrifuged at 2000×g for 5 minutes. The method is then run and masses of each individual well recorded.
The masses (for which integration data is desired) for each well are pasted into the platemap and exported from the analysis. Masses for the internal standards are exported as well. The data at 50 ppm is extracted for the +19 charge state, and identity of well A1 is assigned using the internal standard spike and integrated. Peak data is exported as a TOF list and the above steps are repeated individually, for the +20, 21, 22, 23, 24, and charge states.

Setting [1] is: Binding activity determined at 24 hrs, Table 8a.
Setting [2] is: Binding activity determined at 2 hrs, Table 8b.

T1 sequence (P01116 1-169 isoform P01116-2 G12C): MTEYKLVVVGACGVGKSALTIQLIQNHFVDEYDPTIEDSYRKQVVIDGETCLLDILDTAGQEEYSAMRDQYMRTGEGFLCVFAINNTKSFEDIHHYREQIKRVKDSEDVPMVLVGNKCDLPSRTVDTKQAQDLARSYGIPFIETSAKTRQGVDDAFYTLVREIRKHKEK

`C=CC(=O)N1CCN(C(=O)c2cc(-c3ccccc3Cl)ccc2O)CC1` [VI-26, 1-(4-(2′-chloro-4-hydroxybiphenyl-carbonyl)piperazin-1-yl)prop-2-en-1-one]: the Binding % entry under setting [1] was “++ (++ indicates binding activity greater than 10% and up to 20%)”.
The same measure, in the same setting: under `C=CC(=O)N1CCN(C(=O)c2cc(O)c(Cl)c(-c3ccccc3Cl)c2)CC1` [VI-27] stands “+++ (+++ indicates binding activity greater than 20% and up to 30%)”; under `C=CC(=O)N1CCN(C(=O)c2cn(-c3cc(Cl)ccc3Cl)c(=O)cc2O)CC1` [VI-28, 5-(4-acryloylpiperazine-1-carbonyl)-1-(2,5-dichlorophenyl)-4-hydroxypyridin-2(1H)-one], “++ (++ indicates binding activity greater than 10% and up to 20%)”.
Still for that read-out and setting: the entry for `C=CC(=O)N1CCN(C(=O)c2cc(-c3ccccc3)c(Cl)cc2O)CC1` [VI-29, 1-(4-(6-chloro-4-hydroxybiphenyl-carbonyl)piperazin-1-yl)prop-2-en-1-one] is “+++ (+++ indicates binding activity greater than 20% and up to 30%)”.
In the case of `C=CC(=O)N1CCN(C(=O)c2cc(-c3ccccc3Cl)c(Cl)[nH]2)CC1` [VI-30, 1-(4-(5-chloro-4-(2-chlorophenyl)-1H-pyrrole-2-carbonyl)piperazin-1-yl)prop-2-en-1-one], under setting [1], the Binding % entry was “++ (++ indicates binding activity greater than 10% and up to 20%)”.
Regarding `C=CC(=O)N1CCN(C(=O)c2cc(-c3cc(Cl)ccc3Cl)c[nH]2)CC1` [VI-31, 1-(4-(4-(2,5-dichlorophenyl)-1H-pyrrole-2-carbonyl)piperazin-1-yl)prop-2-en-1-one], the Binding % entry under setting [1] is “+ (+ indicates binding activity from 5% to 10%)”.
Still for that read-out and setting: the entry for `C=CS(=O)(=O)NC1CCN(C(=O)c2ccc(Cl)c(Cl)c2)CC1` [VI-33, N-(1-(3,4-dichlorobenzoyl)piperidin-4-yl)ethenesulfonamide] is “+ (+ indicates binding activity from 5% to 10%)”.
Still for that read-out and setting: under `C=CS(=O)(=O)N1CCN(C(=O)c2ccc(Cl)c(Cl)c2)CC1` [VI-34, (3,4-dichlorophenyl)(4-(vinylsulfonyl)piperazin-1-yl)methanone] stands “+++ (+++ indicates binding activity greater than 20% and up to 30%)”; under `C=CS(=O)(=O)N[C@H]1CCCN(C(=O)c2ccc(Cl)c(Cl)c2)C1` [VI-35, (S)-N-(1-(3,4-dichlorobenzoyl)piperidin-3-yl)ethenesulfonamide], “++ (++ indicates binding activity greater than 10% and up to 20%)”.
Take `C=CC(=O)N1CCN(C(=O)c2ccc(Cl)c(Cl)c2)CC1` [VI-36, 1-(4-(3,4-dichlorobenzoyl)piperazin-1-yl)prop-2-en-1-one]: under setting [1], the Binding % result is on record as “+ (+ indicates binding activity from 5% to 10%)”.
For `C=CC(=O)N1CCN(C(=O)c2cc(-c3ccc(Cl)cc3)c(Cl)cc2O)CC1C#N` (centres unmarked) [VI-37, 1-Acryloyl-4-(4′,6-dichloro-4-hydroxy-[1,1′-biphenyl]-3-carbonyl)piperazine-2-carbonitrile], under setting [2], the Binding % result was “++ (++ indicates binding activity greater than 20%)”.
In the case of `C=CC(=O)N1CCN(C(=O)c2cc(-c3cc(Cl)ccc3Cl)c(Cl)cc2O)CC1C#N` (centres unmarked) [VI-38, 1-acryloyl-4-(2′,5′,6-trichloro-4-hydroxybiphenyl-carbonyl)piperazine-2-carbonitrile], the Binding % result under setting [2] is reported as “++ (++ indicates binding activity greater than 20%)”.
Still for that read-out and setting: under `C=CC(=O)N1CCN(C(=O)c2cc(Cl)c(-c3ccccc3Cl)cc2O)CC1` [VI-41, 1-(4-(2,2′-dichloro-5-hydroxybiphenyl-carbonyl)piperazin-1-yl)prop-2-en-1-one] stands “+ (+ indicates binding activity from 5% to 20%)”; under `C=CC(=O)N1CCN(C(=O)c2cc(Cl)c(-c3cccc(Cl)c3)cc2O)CC1` [VI-43, 1-(4-(2,3′-dichloro-5-hydroxybiphenyl-carbonyl)piperazin-1-yl)prop-2-en-1-one], “+ (+ indicates binding activity from 5% to 20%)”.
